Data taken from ChEMBL document CHEMBL3046640, “Synthesis and antimicrobial activity of bischalcone derivatives” (2013).
In brackets after ≈: the same amount, converted by molar mass. Activity calls are given as the source filed them. The rule behind the calls is not given here.

Key:
Assay type in all cases: functional
Staphylococcus aureus [1] = assay: Antibacterial activity against Staphylococcus aureus ATCC 25923 assessed as growth inhibition at 100 ug/mL after 24 hr by cup-plate method; details: ATCC 25923, 24 h, read-out: DIZ
Escherichia coli [2] = assay: Antibacterial activity against Escherichia coli ATCC 25922 assessed as growth inhibition after 24 hr by broth dilution method
Aspergillus niger [3] = assay: Antifungal activity against Aspergillus niger ATCC 16404 assessed as growth inhibition after 48 hr by broth dilution method
Escherichia coli [4] = assay: Antibacterial activity against Escherichia coli ATCC 25922 assessed as growth inhibition at 100 ug/mL after 24 hr by cup-plate method; details: ATCC 25922, 24 h, read-out: DIZ
Staphylococcus aureus [5] = assay: Antibacterial activity against Staphylococcus aureus ATCC 25923 assessed as growth inhibition after 24 hr by broth dilution method
Candida albicans [6] = assay: Antifungal activity against Candida albicans ATCC 10231 assessed as growth inhibition at 100 ug/mL after 3 to 4 days by agar diffusion method; details: read-out: DIZ
Rhizopus arrhizus [7] = assay: Antifungal activity against Rhizopus oryzae MTCC 262 assessed as growth inhibition at 100 ug/mL after 3 to 4 days by agar diffusion method; details: read-out: DIZ
Pseudomonas aeruginosa [8] = assay: Antibacterial activity against Pseudomonas aeruginosa ATCC 27853 assessed as growth inhibition at 100 ug/mL after 24 hr by cup-plate method; details: ATCC 27853, 24 h, read-out: DIZ
Aspergillus niger [9] = assay: Antifungal activity against Aspergillus niger ATCC 16404 assessed as growth inhibition at 100 ug/mL after 3 to 4 days by agar diffusion method; details: read-out: DIZ
Rhizopus arrhizus [10] = assay: Antifungal activity against Rhizopus oryzae MTCC 262 assessed as growth inhibition after 48 hr by broth dilution method
Candida albicans [11] = assay: Antifungal activity against Candida albicans ATCC 10231 assessed as growth inhibition after 48 hr by broth dilution method
Pseudomonas aeruginosa [12] = assay: Antibacterial activity against Pseudomonas aeruginosa ATCC 27853 assessed as growth inhibition after 24 hr by broth dilution method

Row | MIC (Escherichia coli [2]; ATCC 25922, 24 h) | MIC (Aspergillus niger [3]; ATCC 16404, 48 h) | MIC (Staphylococcus aureus [5]; ATCC 25923, 24 h) | MIC (Rhizopus arrhizus [10]; MTCC 262, 48 h) | MIC (Candida albicans [11]; ATCC 10231, 48 h) | MIC (Pseudomonas aeruginosa [12]; ATCC 27853, 24 h) | MIC (Escherichia coli [2]) | MIC (Pseudomonas aeruginosa [12]) | MIC (Staphylococcus aureus [5]) | MIC (Rhizopus arrhizus [10]) | MIC (Candida albicans [11]) | MIC (Aspergillus niger [3]) | SMILES | zone of inhibition at 100 µg/mL (Staphylococcus aureus [1]) | zone of inhibition at 100 µg/mL (Escherichia coli [4]) | zone of inhibition at 100 µg/mL (Candida albicans [6]) | zone of inhibition at 100 µg/mL (Rhizopus arrhizus [7]) | zone of inhibition at 100 µg/mL (Pseudomonas aeruginosa [8]) | zone of inhibition at 100 µg/mL (Aspergillus niger [9])
1 | > 100 µg/mL | 25 µg/mL (≈ 58.6 µM) | 50 µg/mL (≈ 117 µM) | 25 µg/mL (≈ 58.6 µM) | 25 µg/mL (≈ 58.6 µM) | 50 µg/mL (≈ 117 µM) |  |  |  |  |  |  | COc1cccc(-c2cc(=O)c3cc4c(=O)cc(-c5cccc(OC)c5)oc4cc3o2)c1 | 10 mm | 5 mm | 15 mm | 15 mm | 10 mm | 15 mm
2 | 12.5 µg/mL (≈ 35.7 µM) | 25 µg/mL (≈ 71.4 µM) | 25 µg/mL (≈ 71.4 µM) | 50 µg/mL (≈ 143 µM) | 12.5 µg/mL (≈ 35.7 µM) | 12.5 µg/mL (≈ 35.7 µM) |  |  |  |  |  |  | O=C(/C=C/c1ccco1)c1cc(C(=O)/C=C/c2ccco2)c(O)cc1O | 15 mm | 15 mm | 15 mm | 10 mm | 15 mm | 15 mm
3 |  | 50 µg/mL (≈ 132 µM) | 50 µg/mL (≈ 132 µM) | > 100 µg/mL | 50 µg/mL (≈ 132 µM) |  | inactive | inactive |  |  |  |  | COc1cc(OC)c(C(=O)/C=C/c2ccco2)cc1C(=O)/C=C/c1ccco1 | 10 mm | < 5 mm | 10 mm | 5 mm | < 5 mm | 10 mm
4 |  | > 100 µg/mL | > 100 µg/mL | 50 µg/mL (≈ 114 µM) | 50 µg/mL (≈ 114 µM) | 50 µg/mL (≈ 114 µM) | inactive |  |  |  |  |  | O=C(/C=C/c1cccc(Cl)c1)c1cc(C(=O)/C=C/c2cccc(Cl)c2)c(O)cc1O | 5 mm | < 5 mm | 10 mm | 10 mm | 10 mm | 5 mm
5 | 50 µg/mL (≈ 114 µM) | 50 µg/mL (≈ 114 µM) | 50 µg/mL (≈ 114 µM) | 50 µg/mL (≈ 114 µM) | 50 µg/mL (≈ 114 µM) | 25 µg/mL (≈ 56.9 µM) |  |  |  |  |  |  | O=C(/C=C/c1ccc(Cl)cc1)c1cc(C(=O)/C=C/c2ccc(Cl)cc2)c(O)cc1O | 10 mm | 10 mm | 10 mm | 10 mm | 15 mm | 10 mm
6 | 25 µg/mL (≈ 72.2 µM) | 50 µg/mL (≈ 144 µM) | 25 µg/mL (≈ 72.2 µM) | > 100 µg/mL | 12.5 µg/mL (≈ 36.1 µM) | 12.5 µg/mL (≈ 36.1 µM) |  |  |  |  |  |  | O=c1cc(-c2ccco2)oc2cc3oc(-c4ccco4)cc(=O)c3cc12 | 15 mm | 15 mm | 15 mm | 5 mm | 15 mm | 10 mm
7 |  | > 100 µg/mL |  |  |  | > 100 µg/mL | inactive |  | inactive | inactive | inactive |  | CCN(CC)c1ccc(/C=C/C(=O)c2cc(C(=O)/C=C/c3ccc(N(CC)CC)cc3)c(OC)cc2OC)cc1 | < 5 mm | < 5 mm | < 5 mm | < 5 mm | 5 mm | 5 mm
8 |  | 6.25 µg/mL (≈ 17.7 µM) |  | 6.25 µg/mL (≈ 17.7 µM) | 6.25 µg/mL (≈ 17.7 µM) |  |  |  |  |  |  |  | COC1=CC(=O)C[C@@H](C)[C@]12Oc1c(Cl)c(OC)cc(OC)c1C2=O [GRISEOFULVIN] |  |  | > 20 mm | > 20 mm |  | > 20 mm
9 | 50 µg/mL (≈ 91.5 µM) | 50 µg/mL (≈ 91.5 µM) | > 100 µg/mL | 50 µg/mL (≈ 91.5 µM) | 50 µg/mL (≈ 91.5 µM) | > 100 µg/mL |  |  |  |  |  |  | COc1cc(-c2cc(=O)c3cc4c(=O)cc(-c5cc(OC)c(OC)c(OC)c5)oc4cc3o2)cc(OC)c1OC | 5 mm | 10 mm | 10 mm | 10 mm | 5 mm | 10 mm
10 | 50 µg/mL (≈ 97.5 µM) | > 100 µg/mL | 50 µg/mL (≈ 97.5 µM) | > 100 µg/mL | 50 µg/mL (≈ 97.5 µM) | > 100 µg/mL |  |  |  |  |  |  | CCN(CC)c1ccc(/C=C/C(=O)c2cc(C(=O)/C=C/c3ccc(N(CC)CC)cc3)c(O)cc2O)cc1 | 10 mm | 10 mm | 10 mm | 5 mm | 5 mm | 5 mm
11 | > 100 µg/mL | > 100 µg/mL | 50 µg/mL (≈ 127 µM) | > 100 µg/mL | 50 µg/mL (≈ 127 µM) | 50 µg/mL (≈ 127 µM) |  |  |  |  |  |  | Cc1ccccc1-c1cc(=O)c2cc3c(=O)cc(-c4ccccc4C)oc3cc2o1 | 10 mm | 5 mm | 10 mm | 5 mm | 10 mm | 5 mm
12 |  |  | > 100 µg/mL |  | > 100 µg/mL |  | inactive | inactive |  | inactive |  | inactive | CC(=O)c1cc(C(C)=O)c(OC(=O)c2cccc([N+](=O)[O-])c2)cc1OC(=O)c1cccc([N+](=O)[O-])c1 | 5 mm | < 5 mm | 5 mm | < 5 mm | < 5 mm | < 5 mm
13 | > 100 µg/mL |  | > 100 µg/mL | > 100 µg/mL | > 100 µg/mL |  |  | inactive |  |  |  | inactive | CC(=O)c1cc(C(C)=O)c(OC(=O)c2ccc(Cl)cc2)cc1OC(=O)c1ccc(Cl)cc1 | 5 mm | 5 mm | 5 mm | 5 mm | < 5 mm | < 5 mm
14 | 50 µg/mL (≈ 86.4 µM) |  | > 100 µg/mL |  | > 100 µg/mL | > 100 µg/mL |  |  |  | inactive |  | inactive | COc1cc(OC)c(C(=O)/C=C/c2cc(OC)c(OC)c(OC)c2)cc1C(=O)/C=C/c1cc(OC)c(OC)c(OC)c1 | 5 mm | 10 mm | 5 mm | < 5 mm | 5 mm | < 5 mm
15 | 50 µg/mL (≈ 115 µM) | 25 µg/mL (≈ 57.4 µM) | 25 µg/mL (≈ 57.4 µM) | 50 µg/mL (≈ 115 µM) | 50 µg/mL (≈ 115 µM) | 25 µg/mL (≈ 57.4 µM) |  |  |  |  |  |  | O=c1cc(-c2cccc(Cl)c2)oc2cc3oc(-c4cccc(Cl)c4)cc(=O)c3cc12 | 15 mm | 10 mm | 10 mm | 10 mm | 15 mm | 15 mm
16 |  |  |  |  |  |  |  |  |  |  |  |  | O=C(O)c1cn(C2CC2)c2cc(N3CCNCC3)c(F)cc2c1=O [CIPROFLOXACIN] | > 20 mm | > 20 mm |  |  | > 20 mm | 

Row | SMILES | MIC (Escherichia coli [2]; ATCC 25922, 24 h) | MIC (Aspergillus niger [3]; ATCC 16404, 48 h) | MIC (Staphylococcus aureus [5]; ATCC 25923, 24 h) | MIC (Rhizopus arrhizus [10]; MTCC 262, 48 h) | MIC (Candida albicans [11]; ATCC 10231, 48 h) | MIC (Pseudomonas aeruginosa [12]; ATCC 27853, 24 h) | MIC (Escherichia coli [2]) | MIC (Pseudomonas aeruginosa [12]) | MIC (Staphylococcus aureus [5]) | MIC (Rhizopus arrhizus [10]) | MIC (Candida albicans [11]) | MIC (Aspergillus niger [3]) | zone of inhibition at 100 µg/mL (Staphylococcus aureus [1]) | zone of inhibition at 100 µg/mL (Escherichia coli [4]) | zone of inhibition at 100 µg/mL (Candida albicans [6]) | zone of inhibition at 100 µg/mL (Rhizopus arrhizus [7]) | zone of inhibition at 100 µg/mL (Pseudomonas aeruginosa [8]) | zone of inhibition at 100 µg/mL (Aspergillus niger [9])
17 | O=c1c(O)c(-c2ccc(O)c(O)c2)oc2cc(O)cc(O)c12 [QUERCETIN] | > 100 µg/mL |  | > 100 µg/mL |  | > 100 µg/mL |  |  |  |  |  |  |  |  |  |  |  |  | 
